Tests used:
RXR:PPARγ = target: T1, RXR:PPARγ (Homo sapiens, UniProt P19793); assay: RXR:PPARγ synergy with BRL49653 in CV-1 cells; format: cell-based; conditions: maximal response in presence of 100 nM BRL49653 (RXR:PPARγ) relative to maximal response of BRL49653 alone
T1 construct: host or cells: CV-1
T1 sequence (P19793 1-462): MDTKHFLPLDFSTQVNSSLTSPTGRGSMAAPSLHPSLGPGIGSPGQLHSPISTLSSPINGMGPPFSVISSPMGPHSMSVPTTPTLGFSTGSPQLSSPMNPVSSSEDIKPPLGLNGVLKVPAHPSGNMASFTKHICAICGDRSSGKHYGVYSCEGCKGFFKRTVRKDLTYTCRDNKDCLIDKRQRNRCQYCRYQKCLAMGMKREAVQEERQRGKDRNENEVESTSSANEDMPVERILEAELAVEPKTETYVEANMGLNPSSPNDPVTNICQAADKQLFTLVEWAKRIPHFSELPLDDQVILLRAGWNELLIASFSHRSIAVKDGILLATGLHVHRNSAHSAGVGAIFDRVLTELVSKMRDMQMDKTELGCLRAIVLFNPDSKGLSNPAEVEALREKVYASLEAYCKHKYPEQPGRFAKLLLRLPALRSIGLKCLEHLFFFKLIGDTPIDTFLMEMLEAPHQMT
T1 sequence (P37231 1-505 partner): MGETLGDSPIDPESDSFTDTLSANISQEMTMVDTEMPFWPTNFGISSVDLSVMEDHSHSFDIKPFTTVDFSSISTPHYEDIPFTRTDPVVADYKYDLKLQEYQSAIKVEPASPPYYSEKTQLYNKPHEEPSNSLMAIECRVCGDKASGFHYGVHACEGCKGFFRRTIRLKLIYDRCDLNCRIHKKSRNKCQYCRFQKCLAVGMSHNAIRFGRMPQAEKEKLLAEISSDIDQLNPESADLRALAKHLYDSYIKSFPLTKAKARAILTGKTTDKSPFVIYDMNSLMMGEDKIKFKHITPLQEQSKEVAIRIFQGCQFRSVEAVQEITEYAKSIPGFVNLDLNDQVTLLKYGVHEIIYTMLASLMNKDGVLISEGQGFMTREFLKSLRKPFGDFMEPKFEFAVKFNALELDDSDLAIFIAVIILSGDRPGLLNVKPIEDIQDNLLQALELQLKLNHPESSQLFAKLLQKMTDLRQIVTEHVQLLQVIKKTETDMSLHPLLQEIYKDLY

RXR:RAR = target: T2, RXR:RAR (Homo sapiens, UniProt P19793); assay: RXR:RAR agonist efficacy in CV-1 cells; format: cell-based; conditions: for RXR:RAR CV-1 (%) Ag.: maximal response relative to maximal response of ATRA; for activation of RXR:RAR heterodimers: statement on Table 1
T2 construct: host or cells: CV-1
T2 sequence (P19793 1-462): T1 sequence (P19793 1-462)
T2 sequence (P10276 1-462 partner): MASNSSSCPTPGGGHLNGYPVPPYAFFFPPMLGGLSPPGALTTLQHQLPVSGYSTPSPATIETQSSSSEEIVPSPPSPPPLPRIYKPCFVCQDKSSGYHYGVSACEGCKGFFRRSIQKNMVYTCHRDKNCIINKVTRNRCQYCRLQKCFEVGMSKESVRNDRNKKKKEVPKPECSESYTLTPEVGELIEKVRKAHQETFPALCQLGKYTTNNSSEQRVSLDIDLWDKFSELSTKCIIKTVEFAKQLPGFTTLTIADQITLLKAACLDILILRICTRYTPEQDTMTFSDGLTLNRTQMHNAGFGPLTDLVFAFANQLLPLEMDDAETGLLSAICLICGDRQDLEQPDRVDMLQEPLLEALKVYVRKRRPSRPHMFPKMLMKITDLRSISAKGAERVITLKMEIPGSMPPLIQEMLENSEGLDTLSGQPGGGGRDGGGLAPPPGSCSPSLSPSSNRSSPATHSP

[1] = test system: transgenic mice carrying the human apo A-I gene; assay: Mice transgenic for the human apolipoprotein A-I gene: HDL cholesterol and triglycerides; format: in vivo; conditions: transgenic mouse model; Table 1
Text: Mice transgenic for the human apolipoprotein A-I gene (obtained from Jackson Laboratory) were used to evaluate PPARα mediated effects on high density lipoprotein (HDL) cholesterol. The mice were handled as described above for db/db mice, except that they were fed Purina 5001.
When administered to transgenic mice carrying the human apo A-I gene, compounds of the invention are expected to increase HDL cholesterol. […] This effect is consistent with activation of PPARα and, in fact, in vivo these compounds synergize with the weak PPARα agonist fenofibrate.

RXR:RXR = target: T3, RXR:RXR (Homo sapiens, UniProt P19793); assay: RXR:RXR agonist/antagonist efficacy in CV-1 cells; format: cell-based; conditions: for RXR:RXR CV-1 (%) Antag: maximal repression (100%) in the presence of 32 nM LGD1069; for RXR:RXR CV-1 (%) Ag: maximal response relative to maximal response of ATRA
T3 construct: host or cells: CV-1
T3 sequence (P19793 1-462): T1 sequence (P19793 1-462)

RXR α = target: T4, RXR α (Homo sapiens, UniProt P19793); assay: RXR α binding, Ki from IC50 by Cheng-Prussof equation using tritiated LGD1069; conditions: determined from IC50 values by the Cheng-Prussof equation using tritiated LGD1069; read-out: Bind RXR α Ki
T4 sequence (P19793 1-462): T1 sequence (P19793 1-462)

db/db mouse = db/db mouse plasma glucose and triglycerides, oral gavage; format: in vivo; conditions: for db/db mouse Glu. (D 7): plasma glucose as a % correction relative to lean values on day 7 of treatment with 30 mg/kg/day; for db/db mouse Trigs. (D 3): plasma triglycerides as a % of control values on day 3 of treatment with 30 mg/kg/day
rodent models of NIDDM = assay: Rodent models of NIDDM, effects of full RXR homodimer agonists
Procedure: All animal experiments were conducted in a United States Department of Agriculture registered facility in accordance with NIH guidelines for the care and use of laboratory animals. Mice (obtained from Jackson Laboratory), ZDF rats (obtained from Genetic Models Inc.) and fa/fa rats (obtained from either Charles River, or Harlan) were maintained on 12-hour light/dark cycle. Mice (age 28-42 days) were caged in groups of 5-6. Rats (age 7 weeks) were housed individually. […] Compounds were administered at the specified doses by oral gavage on the morning of each day of any experiment. Blood samples were obtained 3 hours after dosing from fed animals under anesthesia and collected into heparinized capillary tubes from the tail vein.

## CCOc1c(-c2cccc3cc(/C(C)=C/C(=O)O)oc23)cc(C(C)C)cc1C(C)C [Ex. 5, 3-[7-(2-Ethoxy-3,5-diisopropylphenyl)-benzo[b]furan-2-yl]-but-2-enoic acid]
RXR:PPARγ
  PPARγ CV-1 (%) Synergy: 140%
RXR:RAR
  RXR:RAR CV-1 (%) Ag.: 3%
  activation of RXR:RAR heterodimers: do not activate RXR:RAR heterodimers
[1]
  triglycerides: do not raise triglycerides
RXR:RXR
  RXR:RXR CV-1 (%) Antag: 10%
  RXR:RXR CV-1 (%) Ag: 33%
RXR α
  Ki: 0.022 µM
db/db mouse
  db/db mouse Glu. (D 7): 17%
  db/db mouse Trigs. (D 3): 104%

## C/C(=C\C(=O)O)c1cc2c(-c3cc(C(C)(C)C)cc(C(C)(C)C)c3OCC(F)F)cccc2s1 [Ex. 14, 3-{4-[2-(2,2-Difluoroethoxy)-3,5-di-tert-butylphenyl]-benzo[b]thien-2-yl}-but-2-enoic acid]
RXR:PPARγ
  PPARγ CV-1 (%) Synergy: 67%
RXR:RAR
  RXR:RAR CV-1 (%) Ag.: 2%
  activation of RXR:RAR heterodimers: do not activate RXR:RAR heterodimers
[1]
  triglycerides: do not raise triglycerides
RXR:RXR
  RXR:RXR CV-1 (%) Antag: 79%
  RXR:RXR CV-1 (%) Ag: 1%
RXR α
  Ki: 0.012 µM
db/db mouse
  db/db mouse Glu. (D 7): 35%
  db/db mouse Trigs. (D 3): 139%

## CCCOc1c(-c2cccc3sc(/C(C)=C/C(=O)O)cc23)cc(C(C)C)cc1C(C)C [Ex. 15]
RXR:PPARγ
  PPARγ CV-1 (%) Synergy: 109%
RXR:RAR
  RXR:RAR CV-1 (%) Ag.: 6%
  activation of RXR:RAR heterodimers: do not activate RXR:RAR heterodimers
[1]
  triglycerides: do not raise triglycerides
RXR:RXR
  RXR:RXR CV-1 (%) Antag: 81%
  RXR:RXR CV-1 (%) Ag: 4%
RXR α
  Ki: 0.014 µM
db/db mouse
  db/db mouse Glu. (D 7): 20%
  db/db mouse Trigs. (D 3): 98%

## CCCCOc1c(-c2c(F)ccc3sc(/C(C)=C/C(=O)O)cc23)cc(C(C)C)cc1C(C)C [Ex. 18, (E)-3-[4-(2-n-Butoxy-3,5-di-iso-propylphenyl)-5-fluorobenzo[b]thien-2-yl]-but-2-enoic acid]
RXR:PPARγ
  PPARγ CV-1 (%) Synergy: 40%
RXR:RAR
  RXR:RAR CV-1 (%) Ag.: 4%
  activation of RXR:RAR heterodimers: do not activate RXR:RAR heterodimers
[1]
  triglycerides: do not raise triglycerides
RXR:RXR
  RXR:RXR CV-1 (%) Antag: 86%
  RXR:RXR CV-1 (%) Ag: 1%
RXR α
  Ki: 0.054 µM
db/db mouse
  db/db mouse Glu. (D 7): 38%
  db/db mouse Trigs. (D 3): 105%

## CCCCOc1c(-c2nccc3ccc(/C(C)=C/C(=O)O)cc23)cc(C(C)C)cc1C(C)C [Example 53, 3-[1-(2-Butoxy-3,5-diisopropyl-phenyl)-isoquinolin-7-yl]-but-2(E)-enoic acid]
other
  melting point: 149.8 °C

## CCCCOc1c(-c2ccnc3ccc(/C(C)=C/C(=O)O)cc23)cc(C(C)C)cc1C(C)C [Example 54, 3-[4-(2-Butoxy-3,5-diisopropyl-phenyl)quinolin-6-yl]-but-2(E)-enoic acid]
other
  melting point: 195.3 °C

## CCCOc1c(-c2c[nH]c3ccc(/C(C)=C/C(=O)O)cc23)cc(C(C)(C)C)cc1C(C)(C)C [Example 63, 3-[3-(3,5-Di-tert-butyl-2-propoxy-phenyl)-1H-indol-5-yl]-but-2-enoic acid]
other
  melting point: 105 to 115 °C

## C/C(=C\C(=O)O)c1ccc2[nH]cc(-c3cc(C(C)(C)C)cc(C(C)(C)C)c3OCC(F)F)c2c1 [Example 64, 3-{3-[3,5-Di-tert-butyl-2-(2,2-difluro-ethoxy)-phenyl]-1H-indol-5-yl}-but-2-enoic acid]
other
  melting point: 135 to 145 °C

## C/C(=C\C(=O)O)c1ccc2[nH]cc(-c3cc(C(C)(C)C)cc(C(C)(C)C)c3OCC(F)(F)F)c2c1 [Example 65, 3-{3-[3,5-Di-tert-butyl-2-(2,2,2-trifluoro-ethoxy)-phenyl]-1H-indol-5-yl}-but-2-enoic acid]
other
  melting point: 146 to 153 °C

## Cc1cc2c(cc1C1(c3ccc(C(=O)O)cn3)CC1)C(C)(C)CCC2(C)C [LG100268]
[1]
  triglycerides: raises triglycerides
Rodent models of NIDDM
  blood glucose levels: lower blood glucose levels
  thyroid hormone axis: suppress the thyroid hormone axis
  triglycerides: raise triglycerides
db/db mouse
  db/db mouse Glu. (D 7): 73%
  db/db mouse Trigs. (D 3): 195%

## CN(C)C(=N)N=C(N)N [metformin, reference compound]
db/db mouse; 7 week old db/db mice, 300 mg/kg by daily oral gavage, maximum effect after first week, efficacy decreases over 3 subsequent weeks
  plasma glucose: lowers plasma glucose

— US7348359B2, “Retinoid X receptor modulators” (Eli Lilly and Company, priority 2001, dated 2008)
